Read-outs that look alike come from different tables or passages of the source.
Key:
[1] = tested on: Human CD33 exon 2; assay type: cell-based
[2] = tested on: CD33; assay: CD33 production by flow cytometry in THP1 cells; assay type: cell-based, human
Source text: Such a result is protective against AD.
Detection of exon 2 skipping by RT-PCR and flow cytometry.

[3] = tested on: dystrophin; settings: mouse, in vivo
[4] = tested on: Murine DMD exon 23; settings: mouse, in vivo
[5] = tested on: creatine kinase; settings: mouse, in vivo
[6] = tested on: Human CD33 exon 2; settings: U-87 MG glioblastoma cells; 48 hours; 10% FBS
Source text: Cells. Differentiated THP-1 cells (human monocyte cells) and glioblastoma cells (human neuronal cells) were used in this study.
Targeting CD33 expression represents a treatment strategy for AD and cancer. Skipping of exon 2 of the gene expressing CD33 produces D2-CD33, a CD33 isoform that lacks a binding domain of sialic acid. In the absence of such a ligand binding domain, CD33 cannot inhibit microglial activation and phagocytosis of amyloid beta by microglial cells. Such a result is protective against AD.

[7] = tested on: exon 5 of non-human primate CD33; assay: CD33 exon 5 skipping (RT-PCR) in monkey PBMC after intravenous infusion; assay type: in vivo; settings: NHP; IV infusion 2 mpk (d0) and 5 mpk (d3)
Description: NHP Study design. To explore the tolerability of EEV-PMO on non-human primate (NHP), two CPP-PMO constructs as well as PMO itself are dosed in staggered fashion at 2 mpk and 5 mpk through intravenous infusion on d0 and d3, respectively. […] The CPP used was CPP12, which has a cyclic amino acid sequence of FfΦRrRr. PBMCs (peripheral blood mononuclear cells) were isolated at 1 day (d4) and 7 days […] post 5 mpk injection to detect splicing correction. Blood, serum and urine samples were collected at 1 day and or 7 days post each injection for hematology, clinical chemistry, coagulation, urinalysis, cytokine and histamine analysis.
Detection of exon exclusion by RT-PCR. Although human and non-human primates share high sequence homology of CD33 gene, the 5′-UTR and splicing pattern is different. The sequence coding for the IgV domain of CD33 is located in exon 2 for human and located in exon 5 for non-human primate CD33 gene. Therefore, the skipping of exon 2 in human CD33 (D2-CD33), resulting in ΔIgV-CD33 protein, corresponds to the skipping of exon 5 of non-human primate CD33. Monkey PBMC was collected at specified time points mentioned above. Total RNA was extracted, and RT-PCR was conducted using forward primer 5′-[…]-3′ and reverse primer 5′-[…]-3′ resulting in full length CD33 mRNA (FL-CD33) at 700 bp and Exon-5 skipped CD33 mRNA (D5-CD33) at 320 bp.

For “5′-GTAACTGTATTTGGTACTTCC-3′ + CPP12-PEG12-K(CPP12)-PEG12-TFP (all PMO monomers) [EEV-PMO-CD33-4]”, the “dose dependence of exon 2 skipping” value [1] was “dependent on the dose”, the “efficacy in inducing human CD33 exon 2 skipping (PMO sequence optimization)” value [1] was “superior efficacy” and the “potency of bivalent versus monovalent EEV-PMO-CD33 in inducing CD33 exon 2 skipping” value [1] was “more potent than EEV-PMO-CD33-2”. The “skipping of exon 2 of CD33 (RT-PCR)” value [1] was “resulted in skipping of exon 2 and the production of D2-CD33” and the “production of CD33 (flow cytometry) in comparison to untreated (NT) cells” value [2] was “reduced production of CD33”.

In the case of “5′-GGCCAAACCTCGGCTTACCTGAAAT-3′-C3NH-PEG4-BCN+Lys(N3)-miniPEG-NLS-ss-bA-bA-CPP12 (all PMO monomers) [ENTR-0164]”, the “expression of dystrophin protein levels (Western Blot)” value [3] is reported as “significantly corrected the expression of dystrophin protein levels”, the “exon 23 skipping in Quad” value ([4]; iv, 20 mg/kg) is reported as 59.5±2.2% and the “exon 23 skipping in diaphragm” value ([4]; iv, 20 mg/kg) is reported as 61.0±13.7%. The “exon 23 skipping in heart” value ([4]; iv, 20 mg/kg) was 29.1±0.8%.

With “5′-GGCCAAACCTCGGCTTACCTGAAAT-3′-click-K-PEG12-Lys(CPP12)-NLS-Ac (all PMO monomers) [ENTR-0201]” the “splicing correction and dystrophin protein in comparison to 20 mpk PMO” value [3] was “higher amount of both splicing correction and dystrophin protein in all four muscle tissues”, the “duration of restored dystrophin protein (Western Blot)” value ([3]; iv, 20 mg/kg) was “sustained up to four weeks” and the “dystrophin immunohistochemistry, skeletal muscle fibers” value ([3]; iv, 20 mg/kg) was “all the skeletal muscle fibers immunostained positive for dystrophin protein”. For the same substance, the “intensity of dystrophin expression in heart muscle tissue (immunohistochemistry)” value ([3]; iv, 20 mg/kg) was “reaching near normal levels”, the “creatine kinase expression in comparison to control” value [5] was “decrease in creatine kinase expression in comparison to control” and the “serum creatine kinase level” value [5] was “normalized the serum creatine kinase level”. For the same substance, the “amount of splicing correction at 10 mg/kg versus 5 mg/kg” value [4] was “higher amount of splicing correction than treatment with 5 mg/kg”, the “exon skipping activity across muscle groups” value [4] was “high exon skipping activity across all the muscle groups” and the “mRNA correction and dystrophin protein expression in the heart” value [4] was “only observed in 10 mpk ENTR-201 treated MDX mice”. For the same substance, the “performance of CPP12 with Nuclear Localization Sequence versus CPP12 alone” value [4] was “outperformed CPP12 alone significantly”, the “splicing correction of dystrophin in the heart and diaphragm” value [4] was “also resulted in splicing correction of dystrophin in the heart and in the diaphragm” and the “splicing correction of dystrophin mRNA and dystrophin protein levels” value ([4]; 10 mg/kg) was “significant splicing correction of dystrophin mRNA and dystrophin protein levels”. The “splicing correction of dystrophin in the heart and diaphragm” value ([4]; 20 mg/kg) was “resulted in splicing correction of dystrophin in the heart and in the diaphragm”, the “duration of enhanced exon skipping efficiency” value ([4]; iv, 20 mg/kg) was “significant enhancements in exon skipping efficiency up to four weeks” and the “exon 23 skipping in Quad” value ([4]; iv, 20 mg/kg) was 73.5±8.4%. The “exon 23 skipping in diaphragm” value ([4]; iv, 20 mg/kg) was 79.0±6.8%, the “exon 23 skipping in heart” value ([4]; iv, 20 mg/kg) was 60.5±17.2% and the “splicing correction of dystrophin” value ([4]; iv, 20 mg/kg) was “resulted in splicing correction of dystrophin”.

In the case of “5′-GGCCAAACCTCGGCTTACCTGAAAT-3′ (all PMO monomers) [ENTR-0013]”, the “cells positive for dystrophin in cardiac tissue” value [3] is reported as at most 5% and the “mRNA correction and dystrophin protein expression in the heart” value [4] is reported as “not in 20 mg/kg PMO treated MDX mice”.

With “5′-GGCCAAACCTCGGCTTACCTGAAAT-3′-C3NH-PEG4-BCN+Ac-NLS-Lys(CPP12)-PEG12-K(N3) (all PMO monomers) [ENTR-0165]” the “expression of dystrophin protein levels (Western Blot)” value [3] was “significantly corrected the expression of dystrophin protein levels”, the “exon 23 skipping in Quad” value ([4]; iv, 20 mg/kg) was 38.5±2.5% and the “exon 23 skipping in diaphragm” value ([4]; iv, 20 mg/kg) was 30.2±2.8%. The “exon 23 skipping in heart” value ([4]; iv, 20 mg/kg) was 30.5±17.0%.

In the case of “5′-GTAACTGTATTTGGTACTTCC-3′ (Ac-NLS-Lys(CPP12)-PEG12-K(N3)- (all PMO monomers) [EEV-PMO-CD33-5]”, the “dose dependence of exon 2 skipping” value [1] is reported as “dose-dependent skipping of exon 2 CD33”, the “improvement of exon 2 skipping compared to unconjugated PMO-CD33” value [1] is reported as “over 1000 fold” and the “improvement of exon 2 skipping over PMO-CD33 with Endoporter transfection” value [1] is reported as “over 2 fold”. For the same substance, the “skipping of exon 2 CD33 (RT-PCR)” value [6] was “dose-dependent skipping of exon 2 CD33” and the “skipping of exon 5 of CD33 gene in monkey PBMC” value [7] was “resulted in skipping of exon 5 of CD33 gene”.

— patent US20240358845A1 (priority 2021, published 2024)
